# Measurements taken from patent publication US20250340574A1, “MODULATORS OF CYSTIC FIBROSIS TRANSMEMBRANE CONDUCTANCE REGULATOR” (Vertex Pharmaceuticals Incorporated, priority 2022, published 2025).
# Molecular target: T1, CFTR (F508del/MF-HBE cells) (Homo sapiens, UniProt P13569, DEL508-508)
# T1 construct: human bronchial epithelial (HBE) cells derived from CF subjects heterozygous for F508del and a minimal function CFTR mutation (F508del/MF-HBE); endogenous in cells; host or cells: Primary human bronchial epithelial cells from CF subjects (F508del/MF genotype), differentiated at an air-liquid interface
# Experiment: Ussing chamber assay of CFTR-mediated short-circuit currents, Assay A (0.1 μM to 25 μM, 6 concentrations)
# Assay type: cell-based
# Details: with 33 nM potentiator and 18 μM Tezacaftor, 20% human serum; for Emax: 18-24 hours, read-out: A Max activity (%)
# Procedure: Ussing chamber experiments were performed using human bronchial epithelial (HBE) cells derived from CF subjects heterozygous for F508del and a minimal function CFTR mutation (F508del/MF-HBE) and cultured as previously described (Neuberger T, Burton B, Clark H, Van Goor F Methods Mol Biol 2011:741:39-54). After four days the apical media was removed, and the cells were grown at an air liquid interface for >14 days prior to use.
# To isolate the CFTR-mediated short-circuit (ISC) current, F508del/MF-HBE grown on Costar® Snapwell™ cell culture inserts were mounted in an Ussing chamber and the transepithelial ISC was measured under voltage-clamp recording conditions (Vhold=0 mV) at 37° C. The basolateral solution contained (in mM) 145 NaCl, 0.83 K2HPO4, 3.3 KH2PO4, 1.2 MgCl2, 1.2 CaCl2, 10 Glucose, 10 HEPES (pH adjusted to 7.4 with NaOH) and the apical solution contained (in mM) 145 NaGluconate, 1.2 MgCl2, 1.2 CaCl2, 10 glucose, 10 HEPES (pH adjusted to 7.4 with NaOH) and 30 μM amiloride to block the epithelial sodium channel. Forskolin (20 μM) was added to the apical surface to activate CFTR, followed by apical addition of a CFTR inhibitor cocktail consisting of BPO, GlyH-101, and CFTR inhibitor 172 (each at 20 μM final assay concentration) to specifically isolate CFTR currents. The CFTR-mediated ISC (μA/cm^2) for each condition was determined from the peak forskolin response to the steady-state current following inhibition.
# The activity of the CFTR corrector compounds on the CFTR-mediated ISC was determined in Ussing chamber studies as described above. The F508del/MF-HBE cell cultures were either incubated with the corrector compounds at a range of concentrations in combination with 33 nM (6R,12R)-17-amino-12-methyl-6,15-bis(trifluoromethyl)-13,19-dioxa-3,4,18-triazatricyclo[12.3.1.12,5]nonadeca-1(18),2,4,14,16-pentaen-6-ol and 18 μM Tezacaftor or were incubated with the corrector compounds at a single fixed concentration of 1 μM in combination with 44 nM (6R,12R)-17-amino-12-methyl-6,15-bis(trifluoromethyl)-13,19-dioxa-3,4,18-triazatricyclo[12.3.1.12,5]nonadeca-1(18),2,4,14,16-pentaen-6-ol and 18 μM Tezacaftor for 18-24 hours at 37° C. and in the presence of 20% human serum. The concentration of corrector compounds with 44 nM or 33 nM (6R,12R)-17-amino-12-methyl-6,15-bis(trifluoromethyl)-13,19-dioxa-3,4,18-triazatricyclo[12.3.1.12,5]nonadeca-1(18),2,4,14,16-pentaen-6-ol and 18 μM Tezacaftor during the 18-24 hours incubations was kept constant throughout the Ussing chamber measurement of the CFTR-mediated ISC to ensure compounds were present throughout the entire experiment. The efficacy and potency of the putative F508del correctors was compared to that of the known Vertex corrector, (14S)-8-[3-(2-{Dispiro[2.0.2.1]heptan-7-yl}ethoxy)-1H-pyrazol-1-yl]-12,12-dimethyl-2λ^6-thia-3,9,11,18,23-pentaazatetracyclo[17.3.1.111,14.05,10]tetracosa-1(22),5,7,9,19(23),20-hexaene-2,2,4-trione, in combination with 18 μM Tezacaftor and 1 μM Ivacaftor.
# • Assay A: 0.1 μM to 25 μM, 6 concentrations • Assay B: 0.00001 μM to 25 μM, 12 concentrations • Assay C: 0.026 μM to 25 μM, 6 concentrations • Assay D: Activity at single concentration of 1 μM
# T1 sequence (P13569 with tags, fused parts or gaps DEL508-508): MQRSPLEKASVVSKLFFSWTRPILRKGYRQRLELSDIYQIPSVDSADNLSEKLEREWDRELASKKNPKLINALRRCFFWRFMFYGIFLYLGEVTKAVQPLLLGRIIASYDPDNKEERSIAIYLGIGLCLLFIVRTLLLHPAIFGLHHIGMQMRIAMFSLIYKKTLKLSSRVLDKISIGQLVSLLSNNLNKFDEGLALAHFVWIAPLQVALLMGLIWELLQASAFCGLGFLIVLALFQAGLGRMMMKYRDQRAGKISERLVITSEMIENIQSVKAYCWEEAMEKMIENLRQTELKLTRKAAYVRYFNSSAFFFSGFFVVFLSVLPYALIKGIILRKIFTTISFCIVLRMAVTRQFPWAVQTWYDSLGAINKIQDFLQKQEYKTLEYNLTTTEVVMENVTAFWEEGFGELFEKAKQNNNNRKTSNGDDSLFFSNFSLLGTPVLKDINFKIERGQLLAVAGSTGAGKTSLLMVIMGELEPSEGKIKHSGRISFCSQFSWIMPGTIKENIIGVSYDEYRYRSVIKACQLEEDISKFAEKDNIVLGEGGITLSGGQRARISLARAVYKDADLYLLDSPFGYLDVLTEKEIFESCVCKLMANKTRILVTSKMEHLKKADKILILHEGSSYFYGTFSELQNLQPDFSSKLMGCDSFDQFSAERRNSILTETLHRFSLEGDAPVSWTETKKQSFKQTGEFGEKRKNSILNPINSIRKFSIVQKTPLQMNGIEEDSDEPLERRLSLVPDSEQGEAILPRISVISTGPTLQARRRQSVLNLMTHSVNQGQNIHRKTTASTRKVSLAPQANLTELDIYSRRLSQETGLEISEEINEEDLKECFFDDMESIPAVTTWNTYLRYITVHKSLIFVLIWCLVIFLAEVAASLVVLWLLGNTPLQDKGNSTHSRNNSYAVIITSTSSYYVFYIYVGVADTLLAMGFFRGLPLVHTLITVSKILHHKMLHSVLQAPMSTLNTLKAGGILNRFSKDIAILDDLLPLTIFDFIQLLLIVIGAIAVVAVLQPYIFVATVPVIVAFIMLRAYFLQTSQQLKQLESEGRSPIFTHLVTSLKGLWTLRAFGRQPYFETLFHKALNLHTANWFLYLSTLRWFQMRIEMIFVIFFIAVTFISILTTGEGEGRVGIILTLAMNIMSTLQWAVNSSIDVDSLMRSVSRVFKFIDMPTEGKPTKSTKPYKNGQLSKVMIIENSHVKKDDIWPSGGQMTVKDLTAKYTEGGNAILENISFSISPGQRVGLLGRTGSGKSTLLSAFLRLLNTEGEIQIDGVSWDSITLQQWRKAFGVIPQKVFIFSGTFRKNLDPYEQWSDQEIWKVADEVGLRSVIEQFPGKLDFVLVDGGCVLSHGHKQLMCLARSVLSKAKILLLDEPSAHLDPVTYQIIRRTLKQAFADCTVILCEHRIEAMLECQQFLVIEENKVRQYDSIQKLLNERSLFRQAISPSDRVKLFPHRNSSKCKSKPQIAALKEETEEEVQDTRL
Emax [%],EC50 [nM],SMILES
> 60,< 1000,Cc1cccc(C)c1-c1cc2nc(n1)NS(=O)(=O)c1cccc(c1)C(=O)N(Cc1cnc3oc(C(C)C)c(C)c3n1)[C@H](CC(C)(C)C)CO2 [Compound I-4]
> 60,< 1000,Cc1cccc(C)c1-c1cc2nc(n1)NS(=O)(=O)c1cccc(c1)C(=O)N(Cc1nc3c(cc1F)cc(C(C)C)n3C)[C@H](CC(C)(C)C)CO2 [Compound I-6]
> 60,< 1000,Cc1cccc(C)c1-c1cc2nc(n1)NS(=O)(=O)c1cccc(c1)C(=O)N(Cc1cnc3oc(C(C)C)cc3n1)[C@H](C[C@H]1CCCCO1)CO2 [Compound I-7]
> 60,< 1000,Cc1cccc(C)c1-c1cc2nc(n1)NS(=O)(=O)c1cccc(c1)C(=O)N(Cc1cnc3oc(C(C)C)cc3n1)[C@H](CC1CCCCC1)CO2 [Compound I-9]
> 60,< 1000,Cc1cccc(C)c1-c1cc2nc(n1)NS(=O)(=O)c1cccc(c1)C(=O)N(Cc1cnc3oc(C(C)C)c(C)c3n1)[C@H](COC(C)C)CO2 [Compound I-10]
> 60,< 1000,Cc1cccc(C)c1-c1cc2nc(n1)NS(=O)(=O)c1cccc(c1)C(=O)N(Cc1cnc3oc(C(C)C)c(C)c3n1)[C@H](CCC(C)(C)C)CO2 [Compound I-11]
> 60,< 1000,Cc1cccc(C)c1-c1cc2nc(n1)NS(=O)(=O)c1cccc(c1)C(=O)N(Cc1cnc3oc(C(C)C)c(C)c3n1)[C@H](CC1CCCCC1)CO2 [Compound I-12]
> 60,< 1000,Cc1cccc(C)c1-c1cc2nc(n1)NS(=O)(=O)c1cccc(c1)C(=O)N(Cc1cnc3oc(C(C)C)c(C)c3n1)[C@H](CC1(C)CC1)CO2 [Compound I-17]
> 60,< 1000,Cc1cccc(C)c1-c1cc2nc(n1)NS(=O)(=O)c1cccc(c1)C(=O)N(Cc1cnc3oc(C(C)C)c(C)c3n1)[C@H](CCC(C)C)CO2 [Compound I-19]
> 60,< 1000,Cc1cccc(C)c1-c1cc2nc(n1)NS(=O)(=O)c1cccc(c1)C(=O)N(Cc1cnc3oc(C4CC4)cc3n1)[C@H](CC(C)(C)C)CO2 [Compound I-20]
> 60,< 1000,Cc1cccc(C)c1-c1cc2nc(n1)NS(=O)(=O)c1cccc(c1)C(=O)N(Cc1cnc3oc(C4CC4)cc3n1)[C@H](CC1(C)CC1)CO2 [Compound I-25]
> 60,< 1000,Cc1cccc(C)c1-c1cc2nc(n1)NS(=O)(=O)c1cccc(c1)C(=O)N(Cc1cnc3oc(C)c(C4CC4)c3n1)[C@H](CCC(C)(C)C)CO2 [Compound I-27]
30 to 60,< 1000,"Cc1cccc(C)c1-c1cc2nc(n1)NS(=O)(=O)c1cccc(c1)C(=O)N(Cc1cnc3oc(C(C)C)cc3n1)[C@H](CC1CCOCC1)CO2 [Compound I-30, (11R)-6-(2,6-dimethylphenyl)-12-[(6-isopropylfuro[2,3-b]pyrazin-2-yl)methyl]-2,2-dioxo-11-(tetrahydropyran-4-ylmethyl)-9-oxa-2λ^6-thia-3,5,12,19-tetrazatricyclo[12.3.1.14,8]nonadeca-1(18),4(19),5,7,14,16-hexaen-13-one]"
> 60,< 1000,Cc1cccc(C)c1-c1cc2nc(n1)NS(=O)(=O)c1cccc(c1)C(=O)N(Cc1cnc3oc(C(C)C)c(C)c3n1)[C@H](CCC1(C)CCC1)CO2 [Compound I-34]
> 60,< 1000,Cc1cccc(C)c1-c1cc2nc(n1)NS(=O)(=O)c1cccc(c1)C(=O)N(Cc1cnc3oc(C(C)C)cc3n1)[C@H](CC(C)(C)F)CO2 [Compound I-35]
> 60,< 1000,Cc1cccc(C)c1-c1cc2nc(n1)NS(=O)(=O)c1cccc(c1)C(=O)N(Cc1cnc3cc(C(C)C)n(C)c3n1)[C@H](CC13CC(C1)C3)CO2 [Compound I-40]

Emax [%],EC50 [nM],SMILES
> 60,< 1000,Cc1cccc(C)c1-c1cc2nc(n1)NS(=O)(=O)c1cccc(c1)C(=O)N(Cc1cnc3cc(C(C)C)n(C)c3n1)[C@H](CCC1(C)CCC1)CO2 [Compound I-41]
> 60,< 1000,Cc1cccc(C)c1-c1cc2nc(n1)NS(=O)(=O)c1cccc(c1)C(=O)N(Cc1cnc3oc(C4CC4)cc3n1)[C@H](CC1CCCCC1)CO2 [Compound I-42]
> 60,< 1000,Cc1cccc(C)c1-c1cc2nc(n1)NS(=O)(=O)c1cccc(c1)C(=O)N(Cc1cnc3oc(C4CC4)cc3n1)[C@H](CCC1(C)CCC1)CO2 [Compound I-47]
> 60,< 1000,Cc1cccc(C)c1-c1cc2nc(n1)NS(=O)(=O)c1cccc(c1)C(=O)N(Cc1cnc3oc(C4CC4)cc3n1)[C@H](CC(C)(C)F)CO2 [Compound I-51]
> 60,< 1000,"Cc1cccc(C)c1-c1cc2nc(n1)NS(=O)(=O)c1cccc(c1)C(=O)N(Cc1cnc3oc(C(C)C)c(C#N)c3n1)[C@H](CC1(C)CC1)CO2 [Compound I-53, 2-[[(11R)-6-(2,6-dimethylphenyl)-11-[(1-methylcyclopropyl)methyl]-2,2,13-trioxo-9-oxa-2λ^6-thia-3,5,12,19-tetrazatricyclo[12.3.1.14,8]nonadeca-1(18),4(19),5,7,14,16-hexaen-12-yl]methyl]-6-isopropyl-furo[2,3-b]pyrazine-7-carbonitrile]"
> 60,< 1000,Cc1cccc(C)c1-c1cc2nc(n1)NS(=O)(=O)c1cccc(c1)C(=O)N(Cc1cnc3oc(C(C)C)cc3n1)[C@H](CC1(C(F)(F)F)CC1)CO2 [Compound I-54]
> 60,< 1000,Cc1cccc(C)c1-c1cc2nc(n1)NS(=O)(=O)c1cccc(c1)C(=O)N(Cc1nc3cc(C(C)C)oc3cc1F)[C@H](CC(C)(C)C)CO2 [Compound I-63]
> 60,< 1000,Cc1cccc(C)c1-c1cc2nc(n1)NS(=O)(=O)c1cccc(c1)C(=O)N(Cc1cnc3oc(C(C)C)c(C)c3n1)[C@H](CC1CCCC1)CO2 [Compound I-64]
> 60,< 1000,Cc1cccc(C)c1-c1cc2nc(n1)NS(=O)(=O)c1cccc(c1)C(=O)N(Cc1nc3c(cc1F)nc(C(C)C)n3C)[C@H](CC(C)(C)C)CO2 [Compound I-69]
> 60,< 1000,Cc1cccc(C)c1-c1cc2nc(n1)NS(=O)(=O)c1cccc(c1)C(=O)N(Cc1cnc3nc(C(C)C)n(C)c3n1)[C@H](CC1(C)CC1)CO2 [Compound I-75]
> 60,< 1000,Cc1cccc(C)c1-c1cc2nc(n1)NS(=O)(=O)c1cccc(c1)C(=O)N(Cc1nc3cc(C(C)C)oc3cc1F)[C@H](CC1(C)CC1)CO2 [Compound I-78]
> 60,< 1000,Cc1cccc(C)c1-c1cc2nc(n1)NS(=O)(=O)c1cccc(c1)C(=O)N(Cc1nc3c(cc1F)cc(C(C)C)n3C)[C@H](CC1(C)CC1)CO2 [Compound I-80]
> 60,< 1000,Cc1cccc(C)c1-c1cc2nc(n1)NS(=O)(=O)c1cccc(c1)C(=O)N(Cc1cnc3oc(C(C)C)c(C#N)c3n1)[C@H](CC13CC(C1)C3)CO2 [Compound I-85]
> 60,< 1000,Cc1cccc(C)c1-c1cc2nc(n1)NS(=O)(=O)c1cccc(c1)C(=O)N(Cc1cnc3nc(C(C)C)n(C)c3n1)[C@H](COC(C)C)CO2 [Compound I-90]
> 60,< 1000,Cc1cccc(C)c1-c1cc2nc(n1)NS(=O)(=O)c1cccc(c1)C(=O)N(Cc1cnc3oc(C(C)C)c(C#N)c3n1)[C@H](COC(C)C)CO2 [Compound I-91]
